Experimental findings from ChEMBL document CHEMBL1201862, “PubChem BioAssay data set” (2004) are described below.

Test [1] has as its target T1, Aminopeptidase N (Plasmodium falciparum FcB1/Columbia, UniProt O96935).
T1 sequence (O96935 whole entry): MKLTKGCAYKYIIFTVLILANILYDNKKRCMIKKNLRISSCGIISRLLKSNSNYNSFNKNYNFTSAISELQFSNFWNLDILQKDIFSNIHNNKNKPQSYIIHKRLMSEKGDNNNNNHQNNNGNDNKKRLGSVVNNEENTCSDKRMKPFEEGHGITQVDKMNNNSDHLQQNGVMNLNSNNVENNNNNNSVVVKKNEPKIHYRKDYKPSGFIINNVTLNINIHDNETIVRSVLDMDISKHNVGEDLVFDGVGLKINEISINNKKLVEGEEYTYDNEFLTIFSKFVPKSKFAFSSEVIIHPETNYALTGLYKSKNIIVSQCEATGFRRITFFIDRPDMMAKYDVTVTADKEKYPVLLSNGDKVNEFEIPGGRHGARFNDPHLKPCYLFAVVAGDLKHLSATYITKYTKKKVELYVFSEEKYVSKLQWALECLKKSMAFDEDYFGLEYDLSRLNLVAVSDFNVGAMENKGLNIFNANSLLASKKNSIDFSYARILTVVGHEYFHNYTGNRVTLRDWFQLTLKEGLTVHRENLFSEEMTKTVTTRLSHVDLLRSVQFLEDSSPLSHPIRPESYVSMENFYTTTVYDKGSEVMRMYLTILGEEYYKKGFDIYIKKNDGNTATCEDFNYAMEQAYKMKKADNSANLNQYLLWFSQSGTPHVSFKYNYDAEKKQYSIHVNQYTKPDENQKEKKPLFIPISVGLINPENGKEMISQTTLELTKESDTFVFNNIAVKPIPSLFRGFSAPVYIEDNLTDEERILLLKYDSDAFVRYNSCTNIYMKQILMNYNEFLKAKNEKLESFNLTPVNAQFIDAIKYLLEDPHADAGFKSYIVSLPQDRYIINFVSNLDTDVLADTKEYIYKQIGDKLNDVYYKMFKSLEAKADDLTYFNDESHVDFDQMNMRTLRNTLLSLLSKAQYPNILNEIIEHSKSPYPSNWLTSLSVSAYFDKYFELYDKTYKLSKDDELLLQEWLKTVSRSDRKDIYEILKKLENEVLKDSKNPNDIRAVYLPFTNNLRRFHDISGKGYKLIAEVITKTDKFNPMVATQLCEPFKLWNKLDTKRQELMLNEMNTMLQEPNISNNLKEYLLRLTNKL
Briefly: P. falciparum M1AAP inhibitors, biochemical, fluorogenic H-Leu-NHMec substrate, 1536-well (AID 1445). Further details: species or system Plasmodium falciparum 3D7, 3D7.

Test [2] deals with T2, Voltage-gated inwardly rectifying potassium channel KCNH2 (Homo sapiens, UniProt Q12809). Briefly: hERG protection from proarrhythmic block, potency, dose response, cell-based, thallium flux (AID 2121). It is filed as ADME.
T2 sequence (Q12809 whole entry): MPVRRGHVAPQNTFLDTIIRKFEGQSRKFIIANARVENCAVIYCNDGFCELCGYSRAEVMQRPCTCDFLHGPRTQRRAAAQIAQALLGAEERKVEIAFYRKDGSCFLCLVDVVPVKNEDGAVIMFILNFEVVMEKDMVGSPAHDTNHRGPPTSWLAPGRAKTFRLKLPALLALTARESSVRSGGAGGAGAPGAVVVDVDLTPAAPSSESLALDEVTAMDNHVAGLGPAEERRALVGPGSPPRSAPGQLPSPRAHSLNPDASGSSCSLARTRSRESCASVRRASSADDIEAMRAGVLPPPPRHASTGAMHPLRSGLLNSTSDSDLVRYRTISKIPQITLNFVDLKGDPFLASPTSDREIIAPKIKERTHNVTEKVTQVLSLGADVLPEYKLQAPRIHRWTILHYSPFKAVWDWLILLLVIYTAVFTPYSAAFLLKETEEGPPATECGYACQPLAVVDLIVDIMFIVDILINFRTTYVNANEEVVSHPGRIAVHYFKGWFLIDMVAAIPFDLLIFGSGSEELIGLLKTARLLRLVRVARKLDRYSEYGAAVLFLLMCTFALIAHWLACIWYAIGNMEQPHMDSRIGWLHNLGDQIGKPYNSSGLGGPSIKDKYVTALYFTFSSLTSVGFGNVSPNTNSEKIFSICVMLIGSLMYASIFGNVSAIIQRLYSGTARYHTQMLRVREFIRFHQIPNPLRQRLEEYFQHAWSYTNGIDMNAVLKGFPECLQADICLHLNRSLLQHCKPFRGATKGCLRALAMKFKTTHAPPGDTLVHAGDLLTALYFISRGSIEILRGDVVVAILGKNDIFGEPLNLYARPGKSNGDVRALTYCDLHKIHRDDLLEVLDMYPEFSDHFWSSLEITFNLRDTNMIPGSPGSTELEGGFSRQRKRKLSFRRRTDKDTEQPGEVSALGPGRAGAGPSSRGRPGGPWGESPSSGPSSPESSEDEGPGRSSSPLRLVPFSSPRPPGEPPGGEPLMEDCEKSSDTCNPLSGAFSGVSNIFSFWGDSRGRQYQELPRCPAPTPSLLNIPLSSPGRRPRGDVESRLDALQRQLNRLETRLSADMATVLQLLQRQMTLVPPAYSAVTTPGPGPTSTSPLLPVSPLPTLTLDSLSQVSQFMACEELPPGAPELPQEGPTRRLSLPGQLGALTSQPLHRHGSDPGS
The target in test [3] is T2, Voltage-gated inwardly rectifying potassium channel KCNH2. Briefly: concentration dependence of hERG rescue from dofetilide, dose response, manual patch clamp, HEK293 cells (AID 2638). It is filed as ADME.
Test [4] is described as follows: control 3'UTR Renilla luciferase suppression, dose response, counter-screen for Shn3 inhibitor project, cell-based, Clone20-Shn3RL, cherry-picked (AID 624133). It is filed as functional. (In general: The purpose of a counterscreen is to sort out artefacts and off-target activity.)
Test [5] in a line: C. albicans growth with fluconazole, confirmation, fluorescence, retest (AID 2467). It is filed as functional, cell-based.
Test [6] is described as follows: LGR2 antagonists, dose response, cell-based, HEK293, CRE-luciferase reporter, cherry pick, set 2 (AID 743343).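 Further: transfected cells were stimulated with diluted bursicon conditioned medium after compound addition.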 It is filed as functional.
A short description of test [7]: inhibitors of intracellular T. cruzi replication, confirmation, NIH3T3 host cells, beta-gal luminescence (AID 2044).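 Further: intracellular parasites grown in NIH/3T3 mouse fibroblasts as host cells; luminescent beta-galactosidase reporter signal from transgenic T. cruzi replicating inside host cells; inhibitors lower the luminescence signal.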 The class given is functional, cell-based.
The nature of test [8]: Shn3 3'UTR reporter inhibitors, dose response, cell-based, Clone20 osteoblasts, firefly luciferase, cherry-picked (AID 624132).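 Further: firefly luciferase luminescence from reporter carrying the Shn3 3'UTR in osteoblasts.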 The class given is functional.
Test [9] can be described thus: cytotoxicity toward NIH3T3 fibroblasts, dose response, counter-screen, cell-based, ATP luminescence, mouse fibroblasts (AID 2010).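 Further: cells exposed to compound for about 90 hours before reading.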 It is filed as functional.
The target in test [10] is Beta Lactamase (Pseudomonas aeruginosa, UniProt Q932Y6). Nature of the test: beta-lactamase reporter inhibitor potency, dose response, artefact control for TLR9-MyD88 binding inhibitor project, BLA reporter cells, FRET fluorescence (AID 588341).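 Further: cell based assay in CHO-K1 cells stably expressing beta-lactamase.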 It is filed as cell-based.
Chain of Beta Lactamase (Q932Y6 whole entry): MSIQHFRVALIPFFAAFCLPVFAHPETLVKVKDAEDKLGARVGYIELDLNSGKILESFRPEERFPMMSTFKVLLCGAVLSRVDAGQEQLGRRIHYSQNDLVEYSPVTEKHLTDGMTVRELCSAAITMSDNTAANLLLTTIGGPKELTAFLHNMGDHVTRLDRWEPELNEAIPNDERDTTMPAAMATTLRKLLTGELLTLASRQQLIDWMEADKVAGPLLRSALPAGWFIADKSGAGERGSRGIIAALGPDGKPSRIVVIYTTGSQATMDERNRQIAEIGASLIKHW
Test [11] can be described thus: HepG2 cell cytotoxicity, dose response, cytotoxicity control, plate reader, cherry-pick, antagonist series (AID 743416). The class given is functional, cell-based.
In test [12] the target is Bifunctional protein GlmU (Mycobacterium tuberculosis, UniProt P9WMN3). Briefly: Inhibitors of Mycobacterial Glucosamine-1-phosphate acetyl transferase (GlmU). Secondary screen. Details: species or system Mycobacterium tuberculosis H37Rv.
Chain of Bifunctional protein GlmU (P9WMN3 whole entry, the tested form may be a part): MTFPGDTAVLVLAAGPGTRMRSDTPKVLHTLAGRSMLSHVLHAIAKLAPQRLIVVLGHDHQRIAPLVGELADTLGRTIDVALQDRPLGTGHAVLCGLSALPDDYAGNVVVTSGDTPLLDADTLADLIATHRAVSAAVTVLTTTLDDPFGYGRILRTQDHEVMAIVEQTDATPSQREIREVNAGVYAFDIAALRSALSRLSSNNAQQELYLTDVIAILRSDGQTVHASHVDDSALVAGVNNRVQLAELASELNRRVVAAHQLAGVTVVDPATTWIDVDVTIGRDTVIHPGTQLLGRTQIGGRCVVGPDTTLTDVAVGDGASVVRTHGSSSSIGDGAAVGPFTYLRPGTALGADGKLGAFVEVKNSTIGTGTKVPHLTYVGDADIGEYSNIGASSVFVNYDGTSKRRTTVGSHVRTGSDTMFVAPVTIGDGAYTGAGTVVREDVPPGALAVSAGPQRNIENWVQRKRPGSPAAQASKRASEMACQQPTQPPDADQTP
In test [13] the test system is CHO. Nature of the test: cytotoxicity in TLR9-MyD88 CHO cells, dose response, cytotoxicity control for TLR9-MyD88 binding inhibitor project, cell-based, luminescence (AID 588339).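 Further: CHO cells stably coexpressing TLR9 and MyD88 fusions from primary screen; compound exposure lasted 48 hours before viability readout.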 The class given is functional, hamster. The conditions noted are these: Cricetulus griseus.
Test [14] can be described thus: MC4R antagonists, dose response, counter-screen for LGR2 antagonist project, cell-based, plate reader, cherry pick (AID 743444).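 Further: transfected HEK 293 cells stimulated with alpha-MSH peptide; potency of inhibitors of the alpha-MSH evoked signal.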 It is filed as functional.
Test [15] is described as follows: HEK293 cell cytotoxicity, dose response, cytotoxicity control, plate reader, cherry-picked samples (AID 743446). It is filed as functional, cell-based.
A short description of test [16]: Luminescent dose response cell-based high throughput screening assay for inhibitors of the Janus kinase 2 mutant JAK2V617F. [Related pubchem assays: 1446 (Primary screen.), 1521 (Confirmation assay.), 1486 (Counter screen.)]. It is filed as functional.
For test [17], the target named is G-protein coupled receptor 55 (Homo sapiens, UniProt Q9Y2T6). Briefly: GPR55 antagonists blocking LPI-driven arrestin recruitment, primary screen, imaging, U2OS, beta-arrestin-GFP, LPI agonist (AID 2013).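 Further: antagonist potency measured as reduced agonist-driven arrestin aggregation.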 It is filed as functional.
Chain of G-protein coupled receptor 55 (Q9Y2T6 whole entry): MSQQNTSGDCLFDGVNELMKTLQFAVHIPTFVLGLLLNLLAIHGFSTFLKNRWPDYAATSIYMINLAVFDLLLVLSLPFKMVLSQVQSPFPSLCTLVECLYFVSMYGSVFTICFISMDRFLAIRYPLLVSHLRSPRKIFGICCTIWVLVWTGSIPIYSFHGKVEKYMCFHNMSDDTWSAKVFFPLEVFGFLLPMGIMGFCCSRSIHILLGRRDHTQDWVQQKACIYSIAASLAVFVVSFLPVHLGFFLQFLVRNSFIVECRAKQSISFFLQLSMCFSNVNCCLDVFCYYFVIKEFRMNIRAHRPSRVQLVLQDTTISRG
Test [18] can be described thus: NIH-3T3 fibroblast cytotoxicity, dose response, cytotoxicity control, cell-based, fluorescence, Alamar Blue, secondary assay (AID 2327).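 Further: NIH-3T3 mouse fibroblasts cultured with fluconazole at 8 µg/mL.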 It is filed as functional. A general note: The colour change of resazurin is a common sign of viable cells or microbes.
Test [19] is described as follows: A549 cell cytotoxicity, dose response, cytotoxicity control, plate reader, cherry-pick, antagonist series (AID 743412). The class given is functional, cell-based.
Test [20] addresses T3, Replicative DNA helicase DnaB (Mycobacterium tuberculosis, UniProt P9WMR3).
T3 sequence (P9WMR3 whole entry): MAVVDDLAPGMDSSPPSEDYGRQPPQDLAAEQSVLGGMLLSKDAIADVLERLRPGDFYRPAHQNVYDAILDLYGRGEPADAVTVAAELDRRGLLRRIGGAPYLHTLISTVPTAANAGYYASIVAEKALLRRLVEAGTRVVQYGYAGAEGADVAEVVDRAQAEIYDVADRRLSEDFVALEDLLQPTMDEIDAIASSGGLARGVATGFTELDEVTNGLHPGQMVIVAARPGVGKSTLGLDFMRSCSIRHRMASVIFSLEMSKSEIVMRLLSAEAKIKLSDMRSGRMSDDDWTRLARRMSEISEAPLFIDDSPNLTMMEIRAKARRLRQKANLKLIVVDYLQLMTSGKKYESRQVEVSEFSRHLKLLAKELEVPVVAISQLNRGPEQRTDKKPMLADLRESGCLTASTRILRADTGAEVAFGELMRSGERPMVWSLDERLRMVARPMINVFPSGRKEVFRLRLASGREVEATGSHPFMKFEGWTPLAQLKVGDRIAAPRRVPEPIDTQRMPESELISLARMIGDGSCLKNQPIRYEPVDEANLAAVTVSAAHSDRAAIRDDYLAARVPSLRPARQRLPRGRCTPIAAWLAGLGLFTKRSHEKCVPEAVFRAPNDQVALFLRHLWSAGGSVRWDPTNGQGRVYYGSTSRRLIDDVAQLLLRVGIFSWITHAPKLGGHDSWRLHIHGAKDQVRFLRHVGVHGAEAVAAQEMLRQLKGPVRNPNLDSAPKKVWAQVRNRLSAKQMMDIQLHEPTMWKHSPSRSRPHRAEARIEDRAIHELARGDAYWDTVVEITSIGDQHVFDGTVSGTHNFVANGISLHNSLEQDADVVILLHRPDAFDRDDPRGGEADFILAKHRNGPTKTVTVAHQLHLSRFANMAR
Nature of the test: DnaB intein splicing inhibitors, dose response, biochemical, cell-free fluorescence (AID 449749). It is filed as functional.

In test [21] the target is T4, Protein RecA (Mycobacterium tuberculosis, UniProt P9WHJ3).
T4 sequence (P9WHJ3 whole entry): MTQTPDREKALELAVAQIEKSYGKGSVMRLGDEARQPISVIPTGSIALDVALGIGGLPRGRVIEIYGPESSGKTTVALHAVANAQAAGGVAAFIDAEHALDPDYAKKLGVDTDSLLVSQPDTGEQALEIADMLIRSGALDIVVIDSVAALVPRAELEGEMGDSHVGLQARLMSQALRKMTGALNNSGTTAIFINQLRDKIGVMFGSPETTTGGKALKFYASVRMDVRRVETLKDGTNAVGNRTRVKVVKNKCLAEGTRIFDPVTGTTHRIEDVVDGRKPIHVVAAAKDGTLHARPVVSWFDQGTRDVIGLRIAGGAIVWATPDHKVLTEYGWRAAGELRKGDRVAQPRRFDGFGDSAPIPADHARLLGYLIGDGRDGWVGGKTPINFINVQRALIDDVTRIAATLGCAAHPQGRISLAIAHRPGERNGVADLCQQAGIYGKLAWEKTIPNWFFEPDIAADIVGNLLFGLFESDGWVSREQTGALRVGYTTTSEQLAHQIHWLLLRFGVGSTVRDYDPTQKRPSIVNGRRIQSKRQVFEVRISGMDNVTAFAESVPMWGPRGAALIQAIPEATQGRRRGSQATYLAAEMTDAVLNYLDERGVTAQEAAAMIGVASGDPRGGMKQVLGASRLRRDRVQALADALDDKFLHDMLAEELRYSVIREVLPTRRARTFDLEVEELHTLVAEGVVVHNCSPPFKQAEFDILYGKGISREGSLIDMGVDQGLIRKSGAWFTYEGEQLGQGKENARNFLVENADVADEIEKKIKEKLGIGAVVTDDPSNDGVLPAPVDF
Nature of the test: Fluorescence Cell-Free Homogeneous Dose Retest to Identify Inhibitors of RecA-Intein Splicing Activity. [Related pubchem assays (depositor defined):AID2097, AID2223, AID489010, AID492950]. It is filed as functional.

Calls of active or inactive are those of the source.

For the compound `CCC1CCCCN1C(=S)NC(=O)c1cccs1` (stereo unspecified), the half-maximal inhibitory concentration (IC50) (usually the midpoint of a concentration-inhibition curve) in [1] is 30 µM (active). In addition, the EC50 (as a rule, the concentration that produces a half-maximal response) in [2] was 0.29 µM (active); in test [3], 5.2 µM (active).
As to `CNC(=O)c1nnsc1[S+]([O-])c1ccc(Cl)cc1` (stereo unspecified), the AC50 (as a rule, the concentration at which the activity in the assay is half-maximal) was 6.49 µM (active) in [4]; 2.58 µM (active) in test [6]; 2.02 µM (active) in test [8]; 9.72 µM (active) in [11]; 2.49 µM (active) in test [14]; 12 µM (active) in [15]. Moreover, the concentration at half-maximal activity (AC50) is 11.5 µM (active) in test [19] and 41.2 µM (active) in [20]. Further, the EC50 was 2.07 µM (active) in test [5]; 0.977 µM (active) in test [7]; 1.9 µM (active) in test [9]; 5.05 µM (inconclusive) in [18]; 21 µM (active) in test [21]. For the same compound, the IC50 in test [10] was 19.6 µM (inactive); in [12], 108 µM (active); in [13] it was 2.23 µM (active); in test [16], 0.707 µM (active); in [17], 2.73 µM (active).
